Test results taken from US10975167B2, “Method to reduce pulmonary arterial hypertension by administering inhibitors of nicotinamide phosphoribotransferase” (Arizona Board of Regents on Behalf of the University of …, priority 2017, dated 2021).

Experiments:
NAMPT = molecular target: T1, NAMPT (Homo sapiens, UniProt P43490); experiment: CycLex NAMPT Colorimetric Assay, NAMPT enzymatic activity; type: biochemical; details: three doses 0.1, 1, 10 uM
T1 construct: purchased MBL International (Woburn, Mass.)
T1 sequence (P43490 whole entry): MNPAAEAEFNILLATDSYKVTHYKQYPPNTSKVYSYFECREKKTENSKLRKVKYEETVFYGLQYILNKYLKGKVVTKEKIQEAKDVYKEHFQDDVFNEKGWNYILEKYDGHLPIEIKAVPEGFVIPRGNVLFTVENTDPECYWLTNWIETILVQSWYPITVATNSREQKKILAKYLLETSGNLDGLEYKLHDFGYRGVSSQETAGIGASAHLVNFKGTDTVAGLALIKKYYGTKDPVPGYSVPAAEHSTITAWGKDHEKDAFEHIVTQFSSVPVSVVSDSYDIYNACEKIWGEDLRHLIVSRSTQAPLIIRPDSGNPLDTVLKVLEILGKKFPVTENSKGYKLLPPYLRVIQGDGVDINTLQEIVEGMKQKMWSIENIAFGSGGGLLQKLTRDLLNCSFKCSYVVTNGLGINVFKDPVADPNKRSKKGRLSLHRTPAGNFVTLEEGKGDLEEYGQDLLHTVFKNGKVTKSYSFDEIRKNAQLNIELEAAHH
Procedure: CycLex NAMPT Colorimetric Assay Kit was purchased from MBL International (Woburn, Mass.) and utilized to screen the effect of putative NAMPT inhibitors on NAMPT enzymatic activity. Three doses (0.1, 1, 10 uM) of each NAMPT inhibitors was used following the manufacturer's instruction.

MCT-induced PH in rats = experiment: MCT-PH model, FK-866 analogs as preventive therapy; type: in vivo; details: for hypertrophy-ratio of RV and LV plus septal-S weight (RVH-RV) / right ventricular systolic pressure (RVSP): preliminary studies in MCT-PH
Procedure: FIG. 10A is a bar graph showing normalized NAMPT activity in the present of FK866 and FK analogues MS-1-82, Rari049, Alp-135 at 0.1, 1, and 10 μM concentrations. FIG. 10B is a bar graph showing RVSP in MCT-induced PH in rats and in MCT-induced PH in rats with Rari049 (2.5 mg/kg, i.p. BID, ×2 wks) (RVSP-right ventricular systolic pressure, RVH-RV hypertrophy-ratio of RV and LV plus septal-S weight).

[1] = system: Human pulmonary artery endothelial cells (EC); experiment: TNF-α-induced apoptosis / PARP-1 cleavage in human lung endothelial cells; type: cell-based
Procedure: Human pulmonary artery endothelial cells (EC) were obtained from Lonza (Walkersville Md.) and were cultured in the manufacturer's recommended endothelial growth medium-2 (EGM-2). Cells were grown at 37° C. in a 5% CO2 incubator, and passages 6 to 9 were used for experiments. Media was changed one day before experimentation. For RNA interference, siRNAs were transfected into EC at a final concentration of 100 nM for 72 hrs. Protein quantification and Western blot analysis were performed according to standard procedures.
(B) ECs were pre-treated (6 hrs) with either vehicle (DMSO) or with a caspase-3 inhibitor (z-DEVD-fmk, 20 μM) prior to 24 hr challenge with TNF-α (30 ng/ml), FasL (100 ng/ml) or tBHP (5 mM). […] (C) ECs were transfected with myc-tagged NAMPT plasmid resulting in marked NAMPT overexpression. […] Error bars indicate SEM of three independent experiments.

hPASMCs = experiment: TUNEL apoptosis assay in hPASMCs; type: cell-based, human; details: FK866 10 μM, 24 hrs
Procedure: hPASMCs were cultured on a coverslip in a 6-well cell culture plate. H2O2 (100 μM, Sigma, Cat. #ab66110) was used as an apoptosis stimulus for hPASMCs.
When cell confluence reached 95%, cells were starved for 3 hrs and stimulated by H2O2, FK866 (10 μM), H2O2+rhNAMPT (20 μg/ml) or H2O2+rhNAMPT (20 μg/ml) with FK866 (10 μM) for 24 hrs. Cell apoptosis was examined using an in situ BrdU-Red DNA fragmentation (TUNEL) kit. The cells on the coverslips were examined using a Nikon Eclipse E800 fluorescence microscope, and the images were processed by MetaMorph software (Molecular Devices, Inc.). Approximately ten images were taken from each condition, and over 500 cells were counted according to DAPI staining.

[2] = MCT-PH, 2.5 mg/kg, i.p. BID, ×2 wks

| Compound | NAMPT enzyme inhibitory properties (NAMPT) | hypertrophy-ratio of RV and LV plus septal-S weight (RVH-RV) (MCT-induced PH in rats) | right ventricular systolic pressure (RVSP) (MCT-induced PH in rats) | other results |
| --- | --- | --- | --- | --- |
| O=C(/C=C/c1cccnc1)NCCCCCCn1c2ccccc2c2ccccc21 [Alp135] | excellent dose-dependent enzyme inhibitory properties | reducing | reducing | – |
| O=C(/C=C/c1cccnc1)NCCCCCCNC(=O)c1cccnc1 [MS-1-82] | excellent dose-dependent enzyme inhibitory properties | – | – | – |
| O=C(/C=C/c1cccnc1)NCCCCC1CCN(C(=O)c2ccccc2)CC1 [FK866, (E)-N-[4-(1-Benzoylpiperidin-4-yl)butyl]-3-pyridin-3-ylprop-2-enamide, reference compound] | – | – | – | TNFα-induced EC apoptosis ([1]; human lung EC): failed to alter; hPASMC apoptosis (TUNEL positive cells) (hPASMCs): promotes |
| O=C(/C=C/c1cccnc1)NCCCCCCn1c(-c2ccccc2)cc2ccccc21 [Rari049] | excellent dose-dependent enzyme inhibitory properties | reducing | reducing | RVH (MCT-induced PH in rats; [2]): reducing; RVSP (MCT-induced PH in rats; [2]): reducing |
| z-DEVD-fmk | – | – | – | PARP-1 cleavage induced by TNF-α ([1]; pre-incubated 6 hrs, 20 μM, TNF-α 30 ng/ml 24 hrs, vs vehicle (DMSO)): significantly reduced |
